Measured values reported in US10363261B2, “Enolase inhibitors and methods of treatment therewith” (Board of Regents, The University of Texas System, priority 2015, dated 2019).

Assays:
enolase 2 = molecular target: T1, enolase 2 (Homo sapiens, UniProt P09104); assay: Thermal shift assay in intact glioma cells overexpressing ENO2 (D423 ENO2); type: cell-based; details: 100 μM inhibitor
T1 construct: expressed in transfected cells; host or cells: D423 (D423-MG) human glioma cells, clone pCMV ENO2 1x
Experimental: (§1) Thermal shift assays were conducted as described in Martinez Molina, et al. (2013), on lysates of D423 cell line overexpressing ENO1 and ENO2, on recombinant human ENO1 and ENO2 purified from E. coli as well as intact D423 ENO2 overexpressing glioma cells. […] Lysates were diluted (1:100) in Enolase enzymatic activity buffer as mentioned above. Diluted lysates were treated with SF2312, PhAH or vehicle and heated on a C1000 Thermal cycler (Bio-rad) with a linear temperature gradient (50 to 82.5° C. in 2.5° C. increments) for 3 minutes (FIG. 24). The lysates were then centrifuged at 20,000 g for 10 minutes. Supernatant and pellet were then separated and NuPage LDS Sample buffer (Life Technologies # NP0007) was added. Western Blots were performed as described previously (Muller, et al., 2012). The following antibodies were used: ENO1 (Abcam # ab155102), ENO2 (Dako # M087301-2), Vinculin (EMD Millipore #05-386), pan-ENO (Santa Cruz Biotechnology, sc-7455) and TPI (Proteintech #10713-1-AP). Recombinant human ENO2: The same procedure was carried out on purified recombinant ENO2 from E. coli, utilizing the purified protein generated for the X-ray crystallography studies. […]

[1] = tested on: Gli56 ENO1-deleted glioma cells; assay: Cell proliferation by Incucyte, ten days; type: cell-based, human
Experimental: Cell proliferation of glioma cell lines was assayed either through crystal violet staining or by live-cell confluence measurements with the IncuCyte (Essen BioScience). Growth curves using the IncuCyte were generated by confluence imaging every 4 hours with duplicate replicates with an initial seeding of 1500 cells/well in 96-well plates. At the indicated time point, cells were fixed with 10% formalin and stained with crystal violet. Dye extraction was performed using 10% acetic acid solution, and absorbance was read at 595 nm. Apoptotic cells were counted by staining with YO-PRO®-1 Iodide (491/509, Life Technologies, Y3603). Apoptotic cells become permeable to YO-PRO®-1 while live cells are not stained. Alternatively, Propidium Iodide was employed (Life Technologies) instead of YO-PRO. Total cell number was quantified by Hoechst 33342 (Cat# H3570 Invitrogen). Cells were seeded as 2×10^3 cells/well in 96-well plates and treated in the presence or absence of doxycycline. […] Image capture and quantification was done by High Content Screening System—Operetta (Perkin Elmer). ATP content was measured with the luciferase/luciferin CellTiter-Glo® assay. […] Lysis was achieved by the […] in the buffer and vigorous pipetting, and luminescence was determined using an Omega Luminescence Plate Reader (BMG Labtech). […]

[2] = tested on: ATP levels in D423 ENO1-deleted glioma cells; assay: ATP content (CellTiter-Glo); type: cell-based, human; details: 8 hours of treatment
Experimental: Cell proliferation of glioma cell lines was assayed either through crystal violet staining or by live-cell confluence measurements with the IncuCyte (Essen BioScience). Growth curves using the IncuCyte were generated by confluence imaging every 4 hours with duplicate replicates with an initial seeding of 1500 cells/well in 96-well plates. At the indicated time point, cells were fixed with 10% formalin and stained with crystal violet. Dye extraction was performed using 10% acetic acid solution, and absorbance was read at 595 nm. Apoptotic cells were counted by staining with YO-PRO®-1 Iodide (491/509, Life Technologies, Y3603). Apoptotic cells become permeable to YO-PRO®-1 while live cells are not stained. Alternatively, Propidium Iodide was employed (Life Technologies) instead of YO-PRO. Total cell number was quantified by Hoechst 33342 (Cat# H3570 Invitrogen). Cells were seeded as 2×10^3 cells/well in 96-well plates and treated in the presence or absence of doxycycline. On the day of apoptosis survey, old media was removed and each well was filled to 100 μl with fresh media. Hoechst and YO-PRO®-1 were mixed in 1:100 PBS and 10 μl of the mixture was added in each well gently without touching the cells for a final dilution of 1:1000 from stock. Plates were then incubated at 37° C. for 2 hours. Image capture and quantification was done by High Content Screening System—Operetta (Perkin Elmer). ATP content was measured with the luciferase/luciferin CellTiter-Glo® assay. Briefly, 100 μl of CellTiter-Glo® assay media was added to 96-well plates containing 100 μl of media and cells. Lysis was achieved by the […] in the buffer and vigorous pipetting, and luminescence was determined using an Omega Luminescence Plate Reader (BMG Labtech). Results were expressed relative to vehicle treated control.

ENO2 = ENO2 (Homo sapiens, UniProt P09104); assay: Thermal shift assay on recombinant human ENO2 expressed in E. coli; type: binding; parameters: DNA encoding full length Human Enolase 2 was cloned into pJL-H6 plasmid expression vector; His tag (pJL-H6) (C); made in house; host or cells: E. coli BL21 (DE3); details: 10 μM inhibitor
Experimental: as §1

T1 sequence (P09104 whole entry): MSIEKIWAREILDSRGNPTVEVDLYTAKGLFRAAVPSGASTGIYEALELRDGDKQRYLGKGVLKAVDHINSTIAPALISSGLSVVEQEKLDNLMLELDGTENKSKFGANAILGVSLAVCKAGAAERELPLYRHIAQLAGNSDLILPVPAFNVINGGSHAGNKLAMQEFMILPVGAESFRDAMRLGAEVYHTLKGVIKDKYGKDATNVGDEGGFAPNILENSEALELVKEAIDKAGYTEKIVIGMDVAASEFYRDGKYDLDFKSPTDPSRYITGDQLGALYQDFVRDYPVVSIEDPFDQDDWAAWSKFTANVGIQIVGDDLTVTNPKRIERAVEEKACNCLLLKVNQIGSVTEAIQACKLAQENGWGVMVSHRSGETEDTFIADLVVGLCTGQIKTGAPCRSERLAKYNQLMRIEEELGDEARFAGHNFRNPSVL
Chain of ENO2 (P09104 whole entry): as above

How did the “shift of the thermal melting curve of ENO2 in intact glioma cells” value (enolase 2) turn out when `O=C1C(P(=O)(O)O)CC(O)N1O` (racemic) [SF2312, 3-dihydroxyphosphoryl-1,5-dihydroxy-2-pyrrolidone] was run?
Its value is roughly 15 °C.

What about the “fold more potent at inhibiting proliferation of Gli56 ENO1-deleted cells compared to ENO1-intact glioma lines” value [1] of the same compound?
The value was no more than 128 fold.

And the “concentration reducing ATP levels by >40%” value [2]?
The value was 12.5 µM.

And the “fold more potent than PhAH at decreasing ATP levels” value [2]?
The value was roughly 8 fold.

And the “thermal stabilization of recombinant ENO2” value (ENO2)?
Its value is roughly 15 °C.
